Data taken from PubChem BioAssay (NCI).
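Method: 48-hour compound exposure of cells in 96-well plates, five concentrations, linear interpolation of endpoints. TGI: total growth inhibition.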

Assays:
Test in all cases: growth of human tumour cells (NCI), 48 h
786-0 renal = test system: 786-0 renal
A498 renal = test system: A498 renal
A549 NSCLC = test system: A549 NSCLC
ACHN renal = test system: ACHN renal
BT-549 breast = test system: BT-549 breast
CAKI-1 renal = test system: CAKI-1 renal
CCRF-CEM leukemia = test system: CCRF-CEM leukemia
COLO 205 colon = test system: COLO 205 colon
DU-145 prostate = test system: DU-145 prostate
EKVX NSCLC = test system: EKVX NSCLC
HCC-2998 colon = test system: HCC-2998 colon
HCT-116 colon = test system: HCT-116 colon
HCT-15 colon = test system: HCT-15 colon
HL-60(TB) leukemia = test system: HL-60(TB) leukemia
HOP-62 NSCLC = test system: HOP-62 NSCLC
HOP-92 NSCLC = test system: HOP-92 NSCLC
HS 578T breast = test system: HS 578T breast
HT29 colon = test system: HT29 colon
IGROV1 ovarian = test system: IGROV1 ovarian
K-562 leukemia = test system: K-562 leukemia
KM12 colon = test system: KM12 colon
LOX IMVI melanoma = test system: LOX IMVI melanoma
M14 melanoma = test system: M14 melanoma
MALME-3M melanoma = test system: MALME-3M melanoma
MCF7 breast = test system: MCF7 breast
MDA-MB-231 breast = test system: MDA-MB-231 breast
MDA-MB-435 = test system: MDA-MB-435
MDA-N = test system: MDA-N
MOLT-4 leukemia = test system: MOLT-4 leukemia
NCI-H226 lung = test system: NCI-H226 lung
NCI-H23 lung = test system: NCI-H23 lung
NCI-H460 lung = test system: NCI-H460 lung
NCI-H522 lung = test system: NCI-H522 lung
NCI/ADR-RES ovarian = test system: NCI/ADR-RES ovarian
OVCAR-3 ovarian = test system: OVCAR-3 ovarian
OVCAR-5 ovarian = test system: OVCAR-5 ovarian
OVCAR-8 ovarian = test system: OVCAR-8 ovarian
PC-3 prostate = test system: PC-3 prostate
RPMI-8226 leukemia = test system: RPMI-8226 leukemia
RXF 393 renal = test system: RXF 393 renal
SF-268 CNS = test system: SF-268 CNS
SF-295 CNS = test system: SF-295 CNS
SK-MEL-2 melanoma = test system: SK-MEL-2 melanoma
SK-MEL-28 melanoma = test system: SK-MEL-28 melanoma
SK-MEL-5 melanoma = test system: SK-MEL-5 melanoma
SK-OV-3 ovarian = test system: SK-OV-3 ovarian
SN12C renal = test system: SN12C renal
SNB-19 CNS = test system: SNB-19 CNS
SNB-75 CNS = test system: SNB-75 CNS
SR leukemia = test system: SR leukemia
SW-620 colon = test system: SW-620 colon
T-47D breast = test system: T-47D breast
U251 CNS = test system: U251 CNS
UACC-257 melanoma = test system: UACC-257 melanoma
UACC-62 melanoma = test system: UACC-62 melanoma
UO-31 renal = test system: UO-31 renal
OVCAR-4 ovarian = test system: OVCAR-4 ovarian
SF-539 CNS = test system: SF-539 CNS
TK-10 renal = test system: TK-10 renal

CC1(C)[C@H]2Cc3cc(-c4cc5c(cn4)[C@@H]4C[C@H]([C@@H]5[C@@H]5c6cc(-c7cc8c(cn7)[C@@H]7C[C@H](C8)C7(C)C)ncc6[C@@H]6C[C@H]5C6(C)C)C4(C)C)ncc3[C@@H]1C2
TGI (786-0 renal): > 100 µM | TGI (A498 renal): > 100 µM | TGI (A549 NSCLC): > 100 µM | TGI (ACHN renal): > 100 µM | TGI (BT-549 breast): > 100 µM | TGI (CAKI-1 renal): > 100 µM | TGI (CCRF-CEM leukemia): > 100 µM | TGI (COLO 205 colon): > 100 µM | TGI (DU-145 prostate): > 100 µM | TGI (EKVX NSCLC): > 100 µM | TGI (HCC-2998 colon): > 100 µM | TGI (HCT-116 colon): > 100 µM | TGI (HCT-15 colon): > 100 µM | TGI (HL-60(TB) leukemia): > 100 µM | TGI (HOP-62 NSCLC): > 100 µM | TGI (HOP-92 NSCLC): > 100 µM | TGI (HS 578T breast): > 100 µM | TGI (HT29 colon): > 100 µM | TGI (IGROV1 ovarian): > 100 µM | TGI (K-562 leukemia): > 100 µM | TGI (KM12 colon): > 100 µM | TGI (LOX IMVI melanoma): > 100 µM | TGI (M14 melanoma): > 100 µM | TGI (MALME-3M melanoma): > 100 µM | TGI (MCF7 breast): > 100 µM | TGI (MDA-MB-231 breast): > 100 µM | TGI (MDA-MB-435): > 100 µM | TGI (MDA-N): > 100 µM | TGI (MOLT-4 leukemia): > 100 µM | TGI (NCI-H226 lung): > 100 µM | TGI (NCI-H23 lung): > 100 µM | TGI (NCI-H460 lung): > 100 µM | TGI (NCI-H522 lung): > 100 µM | TGI (NCI/ADR-RES ovarian): > 100 µM | TGI (OVCAR-3 ovarian): > 100 µM | TGI (OVCAR-5 ovarian): > 100 µM | TGI (OVCAR-8 ovarian): > 100 µM | TGI (PC-3 prostate): > 100 µM | TGI (RPMI-8226 leukemia): > 100 µM | TGI (RXF 393 renal): > 100 µM | TGI (SF-268 CNS): > 100 µM | TGI (SF-295 CNS): > 100 µM | TGI (SK-MEL-2 melanoma): > 100 µM | TGI (SK-MEL-28 melanoma): > 100 µM | TGI (SK-MEL-5 melanoma): > 100 µM | TGI (SK-OV-3 ovarian): > 100 µM | TGI (SN12C renal): > 100 µM | TGI (SNB-19 CNS): > 100 µM | TGI (SNB-75 CNS): > 100 µM | TGI (SR leukemia): > 100 µM | TGI (SW-620 colon): > 100 µM | TGI (T-47D breast): > 100 µM | TGI (U251 CNS): > 100 µM | TGI (UACC-257 melanoma): > 100 µM | TGI (UACC-62 melanoma): > 100 µM | TGI (UO-31 renal): > 100 µM

O=c1[nH]c2c(c(=O)[nH]1)SSC2
TGI (786-0 renal): 17.5 µM | TGI (A498 renal): 52 µM | TGI (A549 NSCLC): > 63.5 µM | TGI (ACHN renal): > 67.5 µM | TGI (BT-549 breast): 6.65 µM | TGI (CAKI-1 renal): 44.5 µM | TGI (COLO 205 colon): 50.7 µM | TGI (DU-145 prostate): 28.9 µM | TGI (EKVX NSCLC): > 81.4 µM | TGI (HCC-2998 colon): 30.5 µM | TGI (HCT-116 colon): 13.8 µM | TGI (HCT-15 colon): > 91.9 µM | TGI (HL-60(TB) leukemia): 32.6 µM | TGI (HOP-62 NSCLC): 23.5 µM | TGI (HOP-92 NSCLC): 10.7 µM | TGI (HS 578T breast): 56 µM | TGI (HT29 colon): 40 µM | TGI (IGROV1 ovarian): 56.8 µM | TGI (K-562 leukemia): 5.52 µM | TGI (KM12 colon): 38.8 µM | TGI (LOX IMVI melanoma): 6.24 µM | TGI (M14 melanoma): 4.91 µM | TGI (MALME-3M melanoma): 10.1 µM | TGI (MCF7 breast): > 54.3 µM | TGI (MDA-MB-231 breast): 5.15 µM | TGI (MDA-MB-435): 4.67 µM | TGI (MDA-N): 3.17 µM | TGI (MOLT-4 leukemia): 4.79 µM | TGI (NCI-H226 lung): 41.1 µM | TGI (NCI-H23 lung): 26.9 µM | TGI (NCI-H460 lung): 27.2 µM | TGI (NCI-H522 lung): 38.5 µM | TGI (NCI/ADR-RES ovarian): 8.76 µM | TGI (OVCAR-3 ovarian): 38 µM | TGI (OVCAR-4 ovarian): 31.4 µM | TGI (OVCAR-5 ovarian): 32.4 µM | TGI (OVCAR-8 ovarian): 10.2 µM | TGI (PC-3 prostate): > 71.1 µM | TGI (RPMI-8226 leukemia): 6.83 µM | TGI (RXF 393 renal): 28.5 µM | TGI (SF-268 CNS): 13.6 µM | TGI (SF-295 CNS): 36.6 µM | TGI (SF-539 CNS): 9.7 µM | TGI (SK-MEL-2 melanoma): 14.5 µM | TGI (SK-MEL-28 melanoma): 18.7 µM | TGI (SK-MEL-5 melanoma): 29.1 µM | TGI (SK-OV-3 ovarian): 50.9 µM | TGI (SN12C renal): 7.95 µM | TGI (SNB-19 CNS): > 81.3 µM | TGI (SNB-75 CNS): 34.8 µM | TGI (SR leukemia): 2.09 µM | TGI (SW-620 colon): 29.9 µM | TGI (T-47D breast): 25.2 µM | TGI (TK-10 renal): 29.9 µM | TGI (U251 CNS): 30.1 µM | TGI (UACC-257 melanoma): 14.8 µM | TGI (UACC-62 melanoma): 9.14 µM | TGI (UO-31 renal): 24.2 µM
